In PubChem BioAssay (NCI):
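Grown in 96-well plates, cells were treated for 48 hours with each compound at five concentrations. Insufficient inhibition: endpoint recorded as highest concentration tested. TGI is the concentration that stops growth completely.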

tested on: A498 renal; assay: inhibition of tumour cell growth, NCI panel, 48 h

Row | SMILES | TGI
1 | CC1CN1c1c(C(=O)/C=C/c2ccc(Cl)cc2)c(-c2ccccc2)nn(C)c1=O (stereo unspecified) | > 10 µM
2 | COc1cc(C(=O)N2CCc3c([nH]c4c([N+](=O)[O-])c(OC)ccc34)C2C)cc(OC)c1OC (stereo unspecified) | > 100 µM
3 | CCN(CC)CCNC(=O)c1ccc(C)c(OCc2ccccc2)c1[N+](=O)[O-] | > 82.8 µM

tested on: HOP-18 NSCLC; assay: inhibition of tumour cell growth, NCI panel, 48 h

Row | SMILES | TGI
4 | OCCNCCOc1ccc(/C(=C(/Cl)c2ccccc2)c2ccccc2)cc1 | 33.4 µM
5 | COc1cc(C(=O)C/C(CCC(=O)Nc2ccc(Cl)cc2Cl)=N/NC(=O)C(=O)NN)ccc1O | > 100 µM
6 | c1ccc(CSc2nc3ccccc3nc2-c2cccs2)cc1 | > 100 µM
7 | CC(=O)OCCOCNC(=S)N/N=C/c1ccc(Br)s1 | > 100 µM
8 | CC1CN1c1c(C(=O)/C=C/c2ccc(Cl)cc2)c(-c2ccccc2)nn(C)c1=O (stereo unspecified) | > 10 µM
9 | CCN(CC)CCNC(=O)c1ccc(C)c(OCc2ccccc2)c1[N+](=O)[O-] | > 100 µM

tested on: DU-145 prostate; assay: inhibition of tumour cell growth, NCI panel, 48 h

Row | SMILES | TGI
10 | CCN(CC)CCNC(=O)c1ccc(C)c(OCc2ccccc2)c1[N+](=O)[O-] | > 100 µM

tested on: DMS 114 small cell lung; assay: inhibition of tumour cell growth, NCI panel, 48 h

Row | SMILES | TGI
11 | OCCNCCOc1ccc(/C(=C(/Cl)c2ccccc2)c2ccccc2)cc1 | 29.6 µM
12 | COc1cc(C(=O)C/C(CCC(=O)Nc2ccc(Cl)cc2Cl)=N/NC(=O)C(=O)NN)ccc1O | > 100 µM
13 | c1ccc(CSc2nc3ccccc3nc2-c2cccs2)cc1 | > 100 µM
14 | CC(=O)OCCOCNC(=S)N/N=C/c1ccc(Br)s1 | > 100 µM
15 | CC1CN1c1c(C(=O)/C=C/c2ccc(Cl)cc2)c(-c2ccccc2)nn(C)c1=O (stereo unspecified) | > 10 µM
16 | COc1cc(C(=O)N2CCc3c([nH]c4c([N+](=O)[O-])c(OC)ccc34)C2C)cc(OC)c1OC (stereo unspecified) | > 100 µM
17 | CCN(CC)CCNC(=O)c1ccc(C)c(OCc2ccccc2)c1[N+](=O)[O-] | > 65.7 µM

tested on: NCI/ADR-RES ovarian; assay: inhibition of tumour cell growth, NCI panel, 48 h

Row | SMILES | TGI
18 | CCN(CC)CCNC(=O)c1ccc(C)c(OCc2ccccc2)c1[N+](=O)[O-] | > 62.8 µM

tested on: MDA-N; assay: inhibition of tumour cell growth, NCI panel, 48 h

Row | SMILES | TGI
19 | CCN(CC)CCNC(=O)c1ccc(C)c(OCc2ccccc2)c1[N+](=O)[O-] | 38.3 µM

tested on: DMS 273 small cell lung; assay: inhibition of tumour cell growth, NCI panel, 48 h

Row | SMILES | TGI
20 | c1ccc(CSc2nc3ccccc3nc2-c2cccs2)cc1 | > 100 µM
21 | CC(=O)OCCOCNC(=S)N/N=C/c1ccc(Br)s1 | > 100 µM
22 | CC1CN1c1c(C(=O)/C=C/c2ccc(Cl)cc2)c(-c2ccccc2)nn(C)c1=O (stereo unspecified) | 6.29 µM
23 | COc1cc(C(=O)N2CCc3c([nH]c4c([N+](=O)[O-])c(OC)ccc34)C2C)cc(OC)c1OC (stereo unspecified) | > 100 µM
24 | CCN(CC)CCNC(=O)c1ccc(C)c(OCc2ccccc2)c1[N+](=O)[O-] | 46.9 µM

tested on: SNB-75 CNS; assay: inhibition of tumour cell growth, NCI panel, 48 h

Row | SMILES | TGI
25 | OCCNCCOc1ccc(/C(=C(/Cl)c2ccccc2)c2ccccc2)cc1 | 8.46 µM
26 | COc1cc(C(=O)C/C(CCC(=O)Nc2ccc(Cl)cc2Cl)=N/NC(=O)C(=O)NN)ccc1O | > 100 µM
27 | c1ccc(CSc2nc3ccccc3nc2-c2cccs2)cc1 | > 100 µM
28 | CC(=O)OCCOCNC(=S)N/N=C/c1ccc(Br)s1 | > 100 µM
29 | CC1CN1c1c(C(=O)/C=C/c2ccc(Cl)cc2)c(-c2ccccc2)nn(C)c1=O (stereo unspecified) | 8.28 µM
30 | COc1cc(C(=O)N2CCc3c([nH]c4c([N+](=O)[O-])c(OC)ccc34)C2C)cc(OC)c1OC (stereo unspecified) | 98.3 µM
31 | CCN(CC)CCNC(=O)c1ccc(C)c(OCc2ccccc2)c1[N+](=O)[O-] | 67.9 µM

tested on: SF-268 CNS; assay: inhibition of tumour cell growth, NCI panel, 48 h

Row | SMILES | TGI
32 | COc1cc(C(=O)C/C(CCC(=O)Nc2ccc(Cl)cc2Cl)=N/NC(=O)C(=O)NN)ccc1O | > 100 µM
33 | c1ccc(CSc2nc3ccccc3nc2-c2cccs2)cc1 | > 100 µM
34 | CC(=O)OCCOCNC(=S)N/N=C/c1ccc(Br)s1 | > 100 µM
35 | CC1CN1c1c(C(=O)/C=C/c2ccc(Cl)cc2)c(-c2ccccc2)nn(C)c1=O (stereo unspecified) | > 10 µM
36 | COc1cc(C(=O)N2CCc3c([nH]c4c([N+](=O)[O-])c(OC)ccc34)C2C)cc(OC)c1OC (stereo unspecified) | > 100 µM
37 | CCN(CC)CCNC(=O)c1ccc(C)c(OCc2ccccc2)c1[N+](=O)[O-] | > 100 µM

tested on: OVCAR-8 ovarian; assay: inhibition of tumour cell growth, NCI panel, 48 h

Row | SMILES | TGI
38 | OCCNCCOc1ccc(/C(=C(/Cl)c2ccccc2)c2ccccc2)cc1 | 28 µM
39 | COc1cc(C(=O)C/C(CCC(=O)Nc2ccc(Cl)cc2Cl)=N/NC(=O)C(=O)NN)ccc1O | > 100 µM
40 | c1ccc(CSc2nc3ccccc3nc2-c2cccs2)cc1 | > 100 µM
41 | CC(=O)OCCOCNC(=S)N/N=C/c1ccc(Br)s1 | > 100 µM
42 | CC1CN1c1c(C(=O)/C=C/c2ccc(Cl)cc2)c(-c2ccccc2)nn(C)c1=O (stereo unspecified) | 5.67 µM
43 | COc1cc(C(=O)N2CCc3c([nH]c4c([N+](=O)[O-])c(OC)ccc34)C2C)cc(OC)c1OC (stereo unspecified) | > 100 µM
44 | CCN(CC)CCNC(=O)c1ccc(C)c(OCc2ccccc2)c1[N+](=O)[O-] | > 100 µM

tested on: SNB-19 CNS; assay: inhibition of tumour cell growth, NCI panel, 48 h

Row | SMILES | TGI
45 | OCCNCCOc1ccc(/C(=C(/Cl)c2ccccc2)c2ccccc2)cc1 | 28.4 µM
46 | COc1cc(C(=O)C/C(CCC(=O)Nc2ccc(Cl)cc2Cl)=N/NC(=O)C(=O)NN)ccc1O | > 100 µM
47 | c1ccc(CSc2nc3ccccc3nc2-c2cccs2)cc1 | > 100 µM
48 | CC(=O)OCCOCNC(=S)N/N=C/c1ccc(Br)s1 | > 100 µM
49 | CC1CN1c1c(C(=O)/C=C/c2ccc(Cl)cc2)c(-c2ccccc2)nn(C)c1=O (stereo unspecified) | > 10 µM
50 | COc1cc(C(=O)N2CCc3c([nH]c4c([N+](=O)[O-])c(OC)ccc34)C2C)cc(OC)c1OC (stereo unspecified) | > 100 µM
51 | CCN(CC)CCNC(=O)c1ccc(C)c(OCc2ccccc2)c1[N+](=O)[O-] | > 100 µM

tested on: HOP-62 NSCLC; assay: inhibition of tumour cell growth, NCI panel, 48 h

Row | SMILES | TGI
52 | OCCNCCOc1ccc(/C(=C(/Cl)c2ccccc2)c2ccccc2)cc1 | 31.4 µM
53 | COc1cc(C(=O)C/C(CCC(=O)Nc2ccc(Cl)cc2Cl)=N/NC(=O)C(=O)NN)ccc1O | > 100 µM
54 | c1ccc(CSc2nc3ccccc3nc2-c2cccs2)cc1 | > 100 µM
55 | CC(=O)OCCOCNC(=S)N/N=C/c1ccc(Br)s1 | > 100 µM
56 | CC1CN1c1c(C(=O)/C=C/c2ccc(Cl)cc2)c(-c2ccccc2)nn(C)c1=O (stereo unspecified) | 7.66 µM
57 | COc1cc(C(=O)N2CCc3c([nH]c4c([N+](=O)[O-])c(OC)ccc34)C2C)cc(OC)c1OC (stereo unspecified) | > 100 µM
58 | CCN(CC)CCNC(=O)c1ccc(C)c(OCc2ccccc2)c1[N+](=O)[O-] | > 75.4 µM

tested on: 786-0 renal; assay: inhibition of tumour cell growth, NCI panel, 48 h

Row | SMILES | TGI
59 | OCCNCCOc1ccc(/C(=C(/Cl)c2ccccc2)c2ccccc2)cc1 | 22.2 µM
60 | COc1cc(C(=O)C/C(CCC(=O)Nc2ccc(Cl)cc2Cl)=N/NC(=O)C(=O)NN)ccc1O | > 100 µM
61 | c1ccc(CSc2nc3ccccc3nc2-c2cccs2)cc1 | > 100 µM
62 | CC(=O)OCCOCNC(=S)N/N=C/c1ccc(Br)s1 | > 100 µM
63 | CC1CN1c1c(C(=O)/C=C/c2ccc(Cl)cc2)c(-c2ccccc2)nn(C)c1=O (stereo unspecified) | 8.95 µM
64 | COc1cc(C(=O)N2CCc3c([nH]c4c([N+](=O)[O-])c(OC)ccc34)C2C)cc(OC)c1OC (stereo unspecified) | > 100 µM
65 | CCN(CC)CCNC(=O)c1ccc(C)c(OCc2ccccc2)c1[N+](=O)[O-] | > 74.6 µM

tested on: UACC-257 melanoma; assay: inhibition of tumour cell growth, NCI panel, 48 h

Row | SMILES | TGI
66 | OCCNCCOc1ccc(/C(=C(/Cl)c2ccccc2)c2ccccc2)cc1 | 12 µM
67 | COc1cc(C(=O)C/C(CCC(=O)Nc2ccc(Cl)cc2Cl)=N/NC(=O)C(=O)NN)ccc1O | > 100 µM
68 | c1ccc(CSc2nc3ccccc3nc2-c2cccs2)cc1 | > 100 µM
69 | CC(=O)OCCOCNC(=S)N/N=C/c1ccc(Br)s1 | > 100 µM
70 | CC1CN1c1c(C(=O)/C=C/c2ccc(Cl)cc2)c(-c2ccccc2)nn(C)c1=O (stereo unspecified) | > 10 µM
71 | COc1cc(C(=O)N2CCc3c([nH]c4c([N+](=O)[O-])c(OC)ccc34)C2C)cc(OC)c1OC (stereo unspecified) | > 100 µM
72 | CCN(CC)CCNC(=O)c1ccc(C)c(OCc2ccccc2)c1[N+](=O)[O-] | 36.3 µM

tested on: OVCAR-4 ovarian; assay: inhibition of tumour cell growth, NCI panel, 48 h

Row | SMILES | TGI
73 | OCCNCCOc1ccc(/C(=C(/Cl)c2ccccc2)c2ccccc2)cc1 | 31.5 µM
74 | COc1cc(C(=O)C/C(CCC(=O)Nc2ccc(Cl)cc2Cl)=N/NC(=O)C(=O)NN)ccc1O | > 100 µM
75 | c1ccc(CSc2nc3ccccc3nc2-c2cccs2)cc1 | > 100 µM
76 | CC(=O)OCCOCNC(=S)N/N=C/c1ccc(Br)s1 | > 100 µM
77 | CC1CN1c1c(C(=O)/C=C/c2ccc(Cl)cc2)c(-c2ccccc2)nn(C)c1=O (stereo unspecified) | 7.52 µM
78 | COc1cc(C(=O)N2CCc3c([nH]c4c([N+](=O)[O-])c(OC)ccc34)C2C)cc(OC)c1OC (stereo unspecified) | > 100 µM
79 | CCN(CC)CCNC(=O)c1ccc(C)c(OCc2ccccc2)c1[N+](=O)[O-] | > 100 µM

tested on: M19-MEL melanoma; assay: inhibition of tumour cell growth, NCI panel, 48 h

Row | SMILES | TGI
80 | OCCNCCOc1ccc(/C(=C(/Cl)c2ccccc2)c2ccccc2)cc1 | 23.5 µM
81 | COc1cc(C(=O)C/C(CCC(=O)Nc2ccc(Cl)cc2Cl)=N/NC(=O)C(=O)NN)ccc1O | > 100 µM
82 | c1ccc(CSc2nc3ccccc3nc2-c2cccs2)cc1 | > 100 µM
83 | CC(=O)OCCOCNC(=S)N/N=C/c1ccc(Br)s1 | > 100 µM
84 | CC1CN1c1c(C(=O)/C=C/c2ccc(Cl)cc2)c(-c2ccccc2)nn(C)c1=O (stereo unspecified) | > 10 µM
85 | CCN(CC)CCNC(=O)c1ccc(C)c(OCc2ccccc2)c1[N+](=O)[O-] | 32.7 µM

tested on: SK-MEL-28 melanoma; assay: inhibition of tumour cell growth, NCI panel, 48 h

Row | SMILES | TGI
86 | OCCNCCOc1ccc(/C(=C(/Cl)c2ccccc2)c2ccccc2)cc1 | 3.16 µM
87 | COc1cc(C(=O)C/C(CCC(=O)Nc2ccc(Cl)cc2Cl)=N/NC(=O)C(=O)NN)ccc1O | > 100 µM
88 | c1ccc(CSc2nc3ccccc3nc2-c2cccs2)cc1 | > 100 µM
89 | CC(=O)OCCOCNC(=S)N/N=C/c1ccc(Br)s1 | > 100 µM
90 | CC1CN1c1c(C(=O)/C=C/c2ccc(Cl)cc2)c(-c2ccccc2)nn(C)c1=O (stereo unspecified) | > 10 µM
91 | COc1cc(C(=O)N2CCc3c([nH]c4c([N+](=O)[O-])c(OC)ccc34)C2C)cc(OC)c1OC (stereo unspecified) | > 100 µM
92 | CCN(CC)CCNC(=O)c1ccc(C)c(OCc2ccccc2)c1[N+](=O)[O-] | 34.2 µM

tested on: SNB-78 CNS; assay: inhibition of tumour cell growth, NCI panel, 48 h

Row | SMILES | TGI
93 | OCCNCCOc1ccc(/C(=C(/Cl)c2ccccc2)c2ccccc2)cc1 | 23.6 µM
94 | c1ccc(CSc2nc3ccccc3nc2-c2cccs2)cc1 | > 100 µM
95 | CC(=O)OCCOCNC(=S)N/N=C/c1ccc(Br)s1 | > 100 µM
96 | CC1CN1c1c(C(=O)/C=C/c2ccc(Cl)cc2)c(-c2ccccc2)nn(C)c1=O (stereo unspecified) | 5.17 µM
